“And” between values parts separate entries of the source, which are not always exact repeats. Identical values can stand only once.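 A five-concentration, 48-hour dose response in 96-well plates underlies each endpoint, interpolated linearly between surrounding concentrations. GI50 marks 50% less growth. At the TGI there is no net growth.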
tested on: MDA-MB-468 breast; test: NCI-60 cell line screen, 48 h

Structure (SMILES) | GI50 | TGI
COc1cc(-c2cc(-c3nc4cc(Cl)c(Cl)cc4[nH]3)[nH]n2)cc(OC)c1OC | 3490 nM | 16200 nM
CC(C)(C)OC(=O)N1CC(Cn2cc(C(F)(F)F)c3c(Cl)ncnc32)C1 | 1840 nM | 3870 nM
OC(COc1cccc2ccccc12)CN1CCN(c2ccc(Cl)cc2)CC1 (stereo unspecified) | 36400 nM | > 100000 nM
Cc1c2cnccc2c(C)c2c1c1cc(C(=O)O)ccc1n2C | 837 nM | 3070 nM
CN1C(=O)N(C)C2C1NN=c1s/c(=C\c3c[nH]c4ccccc34)c(=O)n12 (stereo unspecified) | 35.9 nM | > 86800 nM
O=C(CCc1ccco1)NC1CCN(CC2(c3ccc(Cl)cc3)CCC2)CC1 | 5280 nM | 18900 nM
COc1cc(/C=C2\CCCC3C2=Nc2ccccc2NC3c2cc(OC)c(OC)c(OC)c2)cc(OC)c1OC (stereo unspecified) | 1710 nM | 6100 nM
C[C@@H]1[C@H]2[C@H](C=C3[C@@H]4CC[C@H]5Cc6nc7c(nc6C[C@]5(C)[C@H]4C[C@@H](O)[C@@]32C)C[C@@H]2CC[C@H]3C4=C[C@@H]5O[C@@]6(CC[C@](C)(CO)O6)[C@@H](C)[C@@]5(O)[C@@]4(C)[C@H](O)C[C@@H]3[C@@]2(C)C7)O[C@]12CCC(C)(C)O2 | 961 nM | 20700 nM
COc1ccc(C2=CC(c3ccc(Oc4ccnc5cc(Cl)ccc45)c(OC)c3)c3c(nc(OC)[nH]c3=O)N2)cc1 (stereo unspecified) | 5220 nM | > 100000 nM
O=C1c2ccc3c4c(ccc(c24)C(=O)N1CCCNCc1ccccc1)C(=O)N(CCCNCc1ccccc1)C3=O | 143 nM | 285 nM
C[C@H](C(=O)N[C@@H](Cc1ccc(-c2ccccc2)cc1)C(=O)NC1CC(C)(C)N(C)C(C)(C)C1)c1ccc(-c2ccccc2)c(F)c1 | 1240 nM | 2660 nM
COc1cc(-c2nc3ccccc3[nH]2)ccc1OCC(=O)N=Nc1c(O)[nH]c2ccc(Cl)cc12 | 1740 nM | 3450 nM
O=C1CCC(N2C(=O)c3ccc(NS(=O)(=O)c4ccccc4OC(F)(F)F)cc3C2=O)C(=O)N1 (stereo unspecified) | 53.6 nM | 2130 nM
CCN(CC)S(=O)(=O)c1ccc(-c2nc(C(Cl)Cl)nc3cc(C)nn23)cc1 | 1720 nM | 4440 nM
CC(C)(C)CC(C)(C)N(CSc1ccc(Cl)cc1)CSc1ccc(Cl)cc1 | 2610 nM | 12400 nM
CN(C)CCN1C(=O)c2cccc3c(N)ccc(c23)C1=O | 8400 nM | > 25000 nM
O=C(Nc1ccc(Cl)cc1F)c1cc(F)ccc1O | 1270 nM | 5180 nM
O=C(C[C@@]1(O)C(=O)Nc2c(Cl)ccc(Cl)c21)c1ccc(C2CC2)cc1 | 221 nM | 18600 nM
N=C(N)c1ccc(-c2ccc(-c3cncc4ccccc34)s2)cc1F | 1280 nM | 2950 nM
COc1ccc(-c2ccc3ncc4c(c3c2)n(-c2ccc(N3CCNCC3)c(C(F)(F)F)c2)c(=O)n4C)cn1 | < 10 nM and 3.18 nM | 19.4 nM and 19.9 nM
COc1nc2c(cc1S(=O)(=O)c1ccccc1)CCc1c-2cnn1Cc1ccccc1 | 6450 nM | > 100000 nM
Fc1c[c-]c(-c2ccccn2)c(F)c1.[CH3-].[Pt+2].c1ccc([PH+](c2ccccc2)c2ccccn2)cc1 | 1400 nM | 4270 nM
COc1ccc2c(c1)C(=O)c1c-2c(OCCN(C)C)nc2cc(OC)ccc12 | 1870 nM | 8570 nM

Structure (SMILES) | GI50 | TGI
CCOC(=O)/C(=C/c1ccccc1)C(=O)c1ccccc1 | 3770 nM | 13800 nM
COc1cc(OC)cc(-c2ccc(-c3ccc(C(=N)N)s3)s2)c1 | 304 nM | 1160 nM
CCN1CCC2(CC1)NC(=O)c1c(c3ccc(Cl)c(Cl)c3n1C)C2C#N (stereo unspecified) | 1350 nM | 2910 nM
COc1cc(-c2nc(-c3nnc(-c4ccc(F)c(Cl)c4)o3)c3ccccn23)cc(OC)c1OC | 3390 nM | > 100000 nM
C=CC(=O)NCCOc1cccc(Nc2cc(NCCCNC(=O)C3CCC3)c(Br)cn2)c1 | 1420 nM | 5080 nM
NC(N)=Nc1ccc(Oc2cccc(Nc3ccc(Cl)c(C(F)(F)F)c3)c2)cc1 | 1480 nM | 3480 nM
C=CC[N+]1(CCO)CCN=C1CCCCCCCCCCCCC (stereo unspecified) | 1180 nM | 2550 nM
Cc1cc(C(=O)N[C@@H](CCC(=O)O)C(=O)O)sc1CC[C@@H]1CNc2nc(N)[nH]c(=O)c2C1 | 33.3 nM | 
O=[N+]([O-])c1cccc(/C=C/c2ccccn2)c1 | 2250 nM | > 100000 nM
Cc1cc(Nc2cc(CN3CCOCC3)c3nc(C)c(Cc4ccc(Cl)cc4F)n3n2)n[nH]1 | 441 nM | 2950 nM
COc1ccccc1-c1ccc2nc(NC(=O)Nc3cc(C(F)(F)F)cc(C(F)(F)F)c3)sc2c1 | 1520 nM | 5430 nM
CSC1=Nc2c(c(C)c(-c3ccccc3)n2CCCCl)C2=NC(=O)CN12 | 3130 nM | 13100 nM
COc1ccc2c(O)c(/C=C3\N=Nc4ncccc43)oc2c1C[C@H]1CCNC[C@H]1F | 246 nM | 1950 nM
COc1ccc(-c2nn(-c3ccc(NC(=O)Nc4ccc(Cl)c(Cl)c4)cc3)cc2-c2ccncc2)cc1Cl | 1610 nM | 4480 nM
COc1ccc(Cn2cc3c(c2-c2cc(OC)c(OC)c(OC)c2)CCCc2cnoc2-3)cc1N | 540 nM | > 100000 nM
COc1cc2cn3c4ccc(O)cc4nc(N)c3c2cc1OC | 313 nM | 2210 nM
CCN1/C(=C/C=C/C=C/c2sc3ccccc3[n+]2CC)Sc2ccccc21 | 117 nM | 989 nM
FC(F)(F)c1[nH]ncc1-c1nc2c(N3CCCCC3)cc3[nH]ncc3c2c2c1CCCC2 | 691 nM | 2450 nM
NC(=O)c1ccc2nc(-c3ccc(C4(N)CCC4)cc3)c(-c3ccccc3)n2n1 | 169 nM | 10300 nM
Cc1cc(O)c(C2=NN(c3ccc(S(N)(=O)=O)cc3)C(c3ccccc3O)C2)cc1Cl (stereo unspecified) | 2260 nM | 5700 nM
O=C1OCC2=C1C(c1cccc(C(F)(F)F)c1)c1cc3c(cc1N2CCO)OCO3 (stereo unspecified) | 244 nM | 2160 nM
COc1ccc2[nH]c(-c3ccccc3)c(C=C(C#N)C#N)c2c1 | 2130 nM | 49900 nM
COc1cccc2c1C(=O)c1c(O)c3c(c(O)c1C2=O)C[C@@](O)(C(=O)CO)C[C@@H]3OC1CC(OC(C)=O)C(OC(C)=O)C(C)O1 (stereo partly specified) | 530 nM | 5060 nM
